The source of these data is the NIST ThermoML archive (doi:10.1021/je100362p).

A short description of series [1]: refractive index (Na D-line) (dimensionless). The settings on record: 101.33 kPa, Liquid, Standard Abbe refractometry.
For series [2] the following is noted: 101 kPa, Liquid; for speed of sound: Sing-around technique in a fixed-path interferometer.
Series [3] in a line: xn = mol fraction of the nth substance listed. The settings on record: 101 kPa, Liquid, x2 = 0; for speed of sound: Sing-around technique in a fixed-path interferometer.
Series [4] in a line: refractive index (Na D-line) (dimensionless); xn = mol fraction of the nth substance listed. The settings on record: 101 kPa, Liquid, Standard Abbe refractometry, x2 = 0.

Each structure is given as a SMILES string. Several values for one entry are separate records, joined by “and”; a condition that tells them apart may be missing. Identical values can stand only once. Numbers after ± are expanded uncertainties.

For `COc1ccccc1` [anisole], the refractive index in series [1] (298.15 K) is recorded as 1.51495 ± 0.00041; in series [1] (303.15 K), 1.51395 ± 0.00054; in series [1] (308.15 K) it was 1.51095 ± 0.0007. Besides, the mass density in series [2] (298.15 K) amounted to 989.145 ± 0.25 kg/m3; in series [2] (303.15 K), 984.433 ± 0.26 kg/m3; in series [2] (308.15 K) it was 979.712 ± 0.27 kg/m3. For the same compound, the speed of sound in series [2] (298.15 K) is 1406.9 ± 1.1 m/s; in series [2] (303.15 K) it was 1386.8 ± 1.1 m/s; in series [2] (308.15 K) it was 1366.5 ± 1.1 m/s.
Take `Cc1ccc(O)cc1` [4-methylphenol]: the refractive index is on record as 1.537 ± 0.00072 in series [1] (298.15 K), 1.534 ± 0.00072 in series [1] (303.15 K) and 1.531 ± 0.00072 in series [1] (308.15 K). Also, the figures for the mass density in series [2] (298.15 K), in series [2] (303.15 K) and in series [2] (308.15 K) were 1030.14 ± 0.49 kg/m3, 1026.28 ± 0.48 kg/m3 and 1022.38 ± 0.47 kg/m3, respectively. In addition, the results for the speed of sound in series [2] (298.15 K), in series [2] (303.15 K) and in series [2] (308.15 K) were 1486.4 ± 1.4 m/s, 1470.7 ± 1.4 m/s and 1455 ± 1.4 m/s, respectively.
Consider `CCCCCCCCCCO` [decan-1-ol] + Cc1ccc(O)cc1, for which the results for the speed of sound in series [3] (298.15 K), in series [3] (303.15 K) and in series [3] (308.15 K) were 1379.4 ± 1.1 m/s, 1362.3 ± 1.1 m/s and 1345.6 ± 1.1 m/s, respectively. In addition, the mass density came out at 826.526 ± 0.55 kg/m3 in series [3] (298.15 K), 823.101 ± 0.56 kg/m3 in series [3] (303.15 K) and 819.671 ± 0.57 kg/m3 in series [3] (308.15 K). Further, the refractive index in series [4] (298.15 K) came to 1.43456 ± 0.00054; in series [4] (303.15 K), 1.43256 ± 0.00054; in series [4] (308.15 K), 1.4305 ± 0.00055.
On to `Cc1cccc(O)c1` [3-methylphenol], for which the refractive index in series [1] (298.15 K) is recorded as 1.538 ± 0.0007; in series [1] (303.15 K), 1.535 ± 0.0007; in series [1] (308.15 K) it was 1.532 ± 0.0007. In addition, the mass density turned out to be 1030.05 ± 0.25 kg/m3 in series [2] (298.15 K), 1026.09 ± 0.24 kg/m3 in series [2] (303.15 K) and 1022.12 ± 0.23 kg/m3 in series [2] (308.15 K). Moreover, the speed of sound turned out to be 1480.9 ± 1 m/s in series [2] (298.15 K), 1465.2 ± 1 m/s in series [2] (303.15 K) and 1449.6 ± 1 m/s in series [2] (308.15 K).
`CCCCCCCCCCO` [decan-1-ol] + Cc1cccc(O)c1: the figures for the speed of sound in series [3] (298.15 K), in series [3] (303.15 K) and in series [3] (308.15 K) were 1379.4 ± 1.1 m/s, 1362.3 ± 1.1 m/s and 1345.6 ± 1.1 m/s, respectively. In addition, the mass density in series [3] (298.15 K) is 826.526 ± 0.55 kg/m3; in series [3] (303.15 K), 823.101 ± 0.56 kg/m3; in series [3] (308.15 K), 819.671 ± 0.57 kg/m3. Further, the refractive index in series [4] (298.15 K) worked out at 1.43456 ± 0.00054; in series [4] (303.15 K), 1.43256 ± 0.00054; in series [4] (308.15 K) it was 1.4305 ± 0.00055.
As to `CCCCCCCCCCO` [decan-1-ol] + COc1ccccc1, the speed of sound stood at 1379.4 ± 1.1 m/s in series [3] (298.15 K), 1362.3 ± 1.1 m/s in series [3] (303.15 K) and 1345.6 ± 1.1 m/s in series [3] (308.15 K). For the same compound, the figures for the mass density in series [3] (298.15 K), in series [3] (303.15 K) and in series [3] (308.15 K) were 826.526 ± 0.55 kg/m3, 823.101 ± 0.56 kg/m3 and 819.671 ± 0.57 kg/m3, respectively. Further, the refractive index in series [4] (298.15 K) came to 1.43456 ± 0.00054; in series [4] (303.15 K), 1.43256 ± 0.00054; in series [4] (308.15 K), 1.4305 ± 0.00055.
Take `CCCCCCCCCCO` [decan-1-ol]: the refractive index was 1.43456 ± 0.00054 in series [1] (298.15 K); 1.43256 ± 0.00054 and 1.43266 ± 0.00054 in series [1] (303.15 K); 1.4305 ± 0.00055 in series [1] (308.15 K). Moreover, the mass density was 826.526 ± 0.55 kg/m3 in series [2] (298.15 K), 823.101 ± 0.56 kg/m3 in series [2] (303.15 K) and 819.671 ± 0.57 kg/m3 in series [2] (308.15 K). For the same compound, the speed of sound in series [2] (298.15 K) came to 1379.4 ± 1.1 m/s; in series [2] (303.15 K), 1362.3 ± 1.1 m/s; in series [2] (308.15 K), 1345.6 ± 1.1 m/s.
Take `Cc1ccccc1O` [2-methylphenol]: the refractive index in series [1] (298.15 K) amounted to 1.544 ± 0.0007; in series [1] (303.15 K), 1.54099 ± 0.00078; in series [1] (308.15 K), 1.53699 ± 0.00087. Further, the mass density came out at 1042.32 ± 0.27 kg/m3 in series [2] (298.15 K), 1036.94 ± 0.26 kg/m3 in series [2] (303.15 K) and 1031.55 ± 0.25 kg/m3 in series [2] (308.15 K). Besides, the speed of sound in series [2] (298.15 K) is listed as 1504.6 ± 1.1 m/s; in series [2] (303.15 K), 1487.4 ± 1.1 m/s; in series [2] (308.15 K), 1470.3 ± 1 m/s.
Turning to `CCCCCCCCCCO` [decan-1-ol] + Cc1ccccc1O, the results for the speed of sound in series [3] (298.15 K), in series [3] (303.15 K) and in series [3] (308.15 K) were 1379.4 ± 1.1 m/s, 1362.3 ± 1.1 m/s and 1345.6 ± 1.1 m/s, respectively. The mass density is 826.526 ± 0.55 kg/m3 in series [3] (298.15 K), 823.101 ± 0.56 kg/m3 in series [3] (303.15 K) and 819.671 ± 0.57 kg/m3 in series [3] (308.15 K). The refractive index in series [4] (298.15 K) is on record as 1.43456 ± 0.00052; in series [4] (303.15 K), 1.43266 ± 0.00054; in series [4] (308.15 K) it was 1.4305 ± 0.00056.

One may read the refractive index as a measure of how strongly the sample bends light. For orientation: mass density means mass per unit of volume. For orientation: speed of sound means how fast a sound wave travels through the sample.
